Measured values: patent US20120264827A1, “SULFANYLAMIDE DERIVATIVES, USES THEREOF AND COMPOSITIONS COMPRISING THEM” (YISSUM RESEARCH DEVELOPMENT COMPANY OF THE HEBREW …, priority 2009, published 2012)
Read-outs that look alike come from different tables or passages of the source.

Columns and labels:
[1] = tested on: maximal electroshock seizure (MES); conditions: cited from earlier work
rats = assay: Neurotoxicity, median neurotoxic dose (TD50), rats, oral; conditions: rats dosed orally
Experimental: (§1) The tested compounds were suspended in 0.5% methylcellulose and administered (a) intraperitioneally (ip) to adult male CF no. 1 albino mice (18-25 g) in volume of 0.01 mL/g body weight and (b) orally to adult male Sprague-Dawley albino rats (100-150 g) in volume of 0.04 mL per 10 g of body weight.
(§2) The TD50 was determined by varying the dose of the tested compounds until four points were established between the dose level that induced no signs of minimal motor impairment in any of the animals and the dose at which all the animals were considered impaired. […] The PIs were calculated by dividing the TD50 by the ED50.

[2] = tested on: subcutaneous metrazol (pentylenetetrazol) seizure; assay: animal or person; conditions: Rattus norvegicus, po, read-out: scMet ED50
Experimental: (§3) The evaluation of the anticonvulsant activity in the maximal electroshock seizure test (MES) and subcutaneous metrazol seizure threshold test (scMet) and the determination of neurotoxicity in the rotorod test, positional sense test, and others were performed according to the protocols described in White, H. S., Woodhead J. H., Wilcox K. S., Stables J. P., Kupferberg H. J., Wolf H. H., Discovery and Preclinical Development of Antiepileptic Drugs; 5th ed.; Lippincott Williams &Wilkins: New york, 2002; 36-48.
(§4) The tested compounds were suspended in 0.5% methylcellulose and administered (a) intraperitioneally (ip) to adult male CF no. 1 albino mice (18-25 g) in volume of 0.01 mL/g body weight and (b) orally to adult male Sprague-Dawley albino rats (100-150 g) in volume of 0.04 mL per 10 g of body weight. The pentylenetetrazol solution at convulsing dose was prepared by sufficient dissolution of pentylenetetrazol in 0.9% saline to make 0.85% solution for administration to mice and a 2.82% solution for administration to rats.
as §2

[3] = tested on: maximal electroshock seizure (MES); conditions: male, Sprague-Dawley, rat, in vivo, po
Experimental: as §1, §2

[4] = tested on: maximal electroshock seizure (MES); assay: Maximal electroshock seizure test (MES), rats, oral; conditions: Rattus norvegicus, po; for responders at 30 mg/kg: read-out: Anti-MES activity (number of animals protected/number of animals tested);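 as to all read-outs here: adult male Sprague-Dawley rats received test compounds by mouth as a suspension in 0.5% methylcellulose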
Experimental: as §1, §2

[5] = tested on: subcutaneous metrazol (pentylenetetrazol) seizure; conditions: male, Sprague-Dawley, rat, in vivo, po
Experimental: as §3, §4, §2

[6] = tested on: subcutaneous metrazol (pentylenetetrazol) seizure; assay: Subcutaneous metrazol seizure threshold test (scMet), mice, intraperitoneal; assay type: in vivo; conditions: ip;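 also: adult male CF no. 1 albino mice weighing 18-25 g, dosed intraperitoneally with compounds suspended in 0.5% methylcellulose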
in vivo = conditions: male, Sprague-Dawley, rat, po
Experimental: as §1, §2

[7] = tested on: maximal electroshock seizure (MES); assay: Maximal electroshock seizure test (MES), mice, intraperitoneal; assay type: in vivo; conditions: ip;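 also: adult male CF no. 1 albino mice of 18–25 g, given compound intraperitoneally as a 0.5% methylcellulose suspension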
[8] = tested on: maximal electroshock seizure (MES); conditions: rats, cited from earlier work; for PI (TD50/ED50) in rat MES test: reference or literature compound
[9] = tested on: subcutaneous metrazol (pentylenetetrazol) seizure; conditions: reference AED; species not stated; cited from earlier work
[10] = 30 mg/kg, 0.5 h after administration
[11] = 30 mg/kg, 4 h after administration
[12] = 100 mg/kg, 0.5 h after administration
[13] = 100 mg/kg, 4 h after administration
[14] = 300 mg/kg, 0.5 h after administration
[15] = 300 mg/kg, 4 h after administration

## CCCC(CCC)C(=O)Nc1ccc(S(N)(=O)=O)cc1 [Compound 6, 4-(valproylamido)-benzenesulfonamide]
[1]; mice, previous studies
  mice-MES test ED50: 21 mg/kg

## CCCC(CCC)C(=O)O [VPA, 2-propylpentanoic acid]
rats
  TD50 (neurotoxicity): 784 mg/kg

## CC1(C)C(C(=O)Nc2ccc(S(N)(=O)=O)cc2)C1(C)C [Compound 7, 4-(2,2,3,3-tetramethylcyclopropanecarboxamido)-benzenesulfon amide]
[1]; MES test in mice and rats, previously synthesized by the inventors
  MES test ED50: 26 mg/kg

## CCCC(C(=O)Nc1ccc(S(N)(=O)=O)cc1)C(C)C (stereo not drawn) [Compound 18, 2-Isopropyl-N-(4-sulfamoyl-phenyl)-pentanamide]
[2]
  ED50: > 250 mg/kg
[3]
  PI, protective index (PI = TD50/ED50) in the MES test: >12.0
[4]; 0.5 h
  responders at 30 mg/kg: 0%
[4]; 1 h
  responders at 30 mg/kg: 100%
[4]; 2 h
  responders at 30 mg/kg: 75%
[4]; 4 h
  responders at 30 mg/kg: 50%
[4]; […]
  responders at 30 mg/kg: 0%
[4]; read-out: MES ED50, rats dosed orally, interval in parentheses = 95% confidence interval
  ED50: 41.5 mg/kg
[5]
  PI, protective index (PI = TD50/ED50) in the scMet test: >2
[6]; [10]
  scMet (number of animals protected/number of animals tested): 0/1 0/1 0/1
[6]; [11]
  scMet (number of animals protected/number of animals tested): 0/1 0/1 0/1
[6]; [12]
  scMet (number of animals protected/number of animals tested): 0/1 0/1 0/1
[6]; [13]
  scMet (number of animals protected/number of animals tested): 0/1 0/1 0/1
[6]; [14]
  scMet (number of animals protected/number of animals tested): 0/1 0/1 0/1
[6]; [15]
  scMet (number of animals protected/number of animals tested): 0/1 0/1 0/1
other
  melting point: 217 to 219 °C
In vivo
  TD50: > 500 mg/kg
[7]; [10]
  MES (number of animals protected/number of animals tested): 0/1
[7]; [11]
  MES (number of animals protected/number of animals tested): 0/1
[7]; [12]
  MES (number of animals protected/number of animals tested): 0/3
[7]; [13]
  MES (number of animals protected/number of animals tested): 2/3
[7]; [14]
  MES (number of animals protected/number of animals tested): 1/1
[7]; [15]
  MES (number of animals protected/number of animals tested): 1/1

## CC1(C)C(C(=O)Nc2nnc(S(N)(=O)=O)s2)C1(C)C [5-(2,2,3,3-tetramethylcyclopropanecarboxamide)-1,3,4-thiamidazole-2-sulfonamide]
[8]
  PI (TD50/ED50) in rat MES test: above 50

## NS(=O)(=O)Cc1noc2ccccc12 [Zonisamide]
[8]; reference AED
  Rat-MES test ED50: 21 mg/kg
[8]
  PI (TD50/ED50) in rat MES test: 9.1
[9]
  anticonvulsant activity in the scMet test: does not display anticonvulsant activity
